Data as given in US20220315598A1, “Oxygen-containing Heterocyclic Compound, Preparation Method Therefor and Use Thereof” (SHANGHAI YINGLI PHARMACEUTICAL CO., LTD, priority 2019, published 2022).

Legend:
CYP1A2 = target: T1, CYP1A2 (Homo sapiens, UniProt P05177); assay: Inhibition of metabolic enzymes in vitro, human liver microsomes, CYP1A2; type: in vitro ADME; settings: substrate Phenacetin
T1 construct: human liver microsomes and CYP enzyme-specific substrates were used; from tissue; host or cells: human liver microsomes
T1 sequence (P05177 1-516): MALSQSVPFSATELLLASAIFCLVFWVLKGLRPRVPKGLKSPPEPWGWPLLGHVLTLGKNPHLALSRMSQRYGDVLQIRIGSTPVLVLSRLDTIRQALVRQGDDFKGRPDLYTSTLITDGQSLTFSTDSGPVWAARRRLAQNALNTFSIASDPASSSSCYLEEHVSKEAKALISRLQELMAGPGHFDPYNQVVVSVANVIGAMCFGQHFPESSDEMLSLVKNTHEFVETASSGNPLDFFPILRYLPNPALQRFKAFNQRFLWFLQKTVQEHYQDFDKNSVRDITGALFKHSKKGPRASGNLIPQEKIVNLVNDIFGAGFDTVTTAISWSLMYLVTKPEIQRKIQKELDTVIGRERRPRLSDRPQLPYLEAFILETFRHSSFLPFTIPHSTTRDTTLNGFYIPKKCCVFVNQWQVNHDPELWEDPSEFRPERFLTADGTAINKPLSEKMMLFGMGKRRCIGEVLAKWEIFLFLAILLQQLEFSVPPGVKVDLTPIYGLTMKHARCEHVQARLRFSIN
Description: (§1) Test purpose: In this test, human liver microsomes and CYP enzyme-specific substrates were used to test the effects of different concentrations of compounds to be tested on metabolic rates of enzyme-specific substrates, so as to determine inhibitory effects of these compounds on CYP enzymes in human liver microsomes.
(§2) 1. preparing […] potassium phosphate buffer (pH 7.4);
(§3) 2. preparing stock solutions of compounds to be tested (10 mM), NADPH solutions (8 mM, which was 4 times the final concentration), positive compound stock solutions, substrate stock solutions and human liver microsome solutions (see the table below);
(§4) 3. preparing solutions of compounds to be tested: dissolving 8 μL of 10 mM stock solution of compounds to be tested in 12 μL of acetonitrile, and then using a mixed solution of 40% DMSO and 60% acetonitrile to perform a 1:3 gradient dilution as follows (wherein the concentration was 400 times the final concentration): 4 mM, 1.333 mM, 0.444 mM, 0.148 mM, 0.0494 mM, 0.0165 mM, 0.00549 mM and 0 mM.
(§5) 4. preparing positive control inhibitor solutions: dissolving 8 μL of positive control inhibitor stock solutions in 12 μL of acetonitrile, and then using a mixed solution of 40% DMSO and 60% acetonitrile to perform a 1:3 gradient dilution as follows (wherein the concentration was 400 times the final concentration, which was described in the table below); […]

CYP2C9 = target: T2, CYP2C9 (Homo sapiens, UniProt P11712); assay: Inhibition of metabolic enzymes in vitro, human liver microsomes, CYP2C9; type: in vitro ADME; settings: substrate Diclofenac
T2 construct: human liver microsomes and CYP enzyme-specific substrates were used; from tissue; host or cells: human liver microsomes
Description: as §1, §2, §3, §4, §5

CYP2C19 = target: T3, CYP2C19 (Homo sapiens, UniProt P33261); assay: Inhibition of metabolic enzymes in vitro, human liver microsomes, CYP2C19; type: in vitro ADME; settings: substrate S-Mephenytoin
T3 construct: human liver microsomes and CYP enzyme-specific substrates were used; from tissue; host or cells: human liver microsomes
Description: as §1, §2, §3, §4, §5

CYP2D6 = CYP2D6 (Homo sapiens, UniProt P10635); assay: Inhibition of metabolic enzymes in vitro, human liver microsomes, CYP2D6
Description: as §1, §2, §3, §4, §5

CYP3A4 = CYP3A4 (Homo sapiens, UniProt P08684); assay: Inhibition of metabolic enzymes in vitro, human liver microsomes, CYP3A4
Description: as §1, §2, §3
4. preparing positive control inhibitor solutions: dissolving 8 μL of positive control inhibitor stock solutions in 12 μL of acetonitrile, and then using a mixed solution of 40% DMSO and 60% acetonitrile to perform a 1:3 gradient dilution as follows (wherein the concentration was 400 times the final concentration, which was described in the table below);
6. preparing mixed solutions of positive control compounds and human liver microsomes: adding 200 μL of 0.2 mg/mL human liver microsomes to a 96-well plate, and adding 1 μL of diluted solutions of positive control compounds;
7. dispensing 30 μL of mixed solutions of the compounds and human liver microsomes to a 96-well plate, and then adding […] substrate solutions: adding […] preheated NADPH solutions to a preheated reaction plate and mixing evenly to start the reaction;
8. incubating the reaction plate at 37° C.; 3A4 was reacted for 5 minutes; 1A2, 2C9 and 2D6 were reacted for 10 minutes; 2C19 was reacted for 45 minutes;
9, after completion of the addition, adding 120 μL of acetonitrile containing internal standard to terminate the reaction: after terminating the reaction, shaking the sample on a shaker at 600 rpm/min for 10 minutes and centrifuging same at 3220×g for 15 minutes; after centrifugation, taking out 50 μL of supernatant and mixing same with 50 μL of water for analysis by LC-MS/MS.
According to the following equation, the data was plotted and fitted using a dose-response model in GraphPad Prism software to calculate IC50.
Y=Bottom+(Top−Bottom)/(1+10^((Log IC50−X)×HillSlope))
X represents the logarithm concentration of the inhibitor, and Y represents the relative activity of the enzyme at a certain inhibitor concentration (relative to the condition without inhibitor).

[1] = IC50 (μM) CYP3A4 (Midazolam), substrate Midazolam
[2] = IC50 (μM) CYP3A4 (Testosterone), substrate Testosterone

Chain of CYP3A4 (P08684 whole entry): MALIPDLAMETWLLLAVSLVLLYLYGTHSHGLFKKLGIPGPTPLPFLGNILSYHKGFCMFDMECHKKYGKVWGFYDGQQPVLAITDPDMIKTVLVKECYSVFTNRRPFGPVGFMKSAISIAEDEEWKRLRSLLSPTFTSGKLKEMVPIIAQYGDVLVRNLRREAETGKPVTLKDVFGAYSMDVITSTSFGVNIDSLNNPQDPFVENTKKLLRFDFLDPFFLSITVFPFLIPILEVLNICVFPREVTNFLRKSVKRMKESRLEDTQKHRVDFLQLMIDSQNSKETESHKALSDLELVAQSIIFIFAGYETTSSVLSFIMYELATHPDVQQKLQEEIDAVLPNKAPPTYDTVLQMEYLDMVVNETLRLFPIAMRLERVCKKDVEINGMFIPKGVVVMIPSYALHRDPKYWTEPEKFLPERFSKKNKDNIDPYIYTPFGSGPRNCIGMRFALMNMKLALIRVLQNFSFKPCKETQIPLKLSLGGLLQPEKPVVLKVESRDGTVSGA
Chain of CYP2D6 (P10635 whole entry): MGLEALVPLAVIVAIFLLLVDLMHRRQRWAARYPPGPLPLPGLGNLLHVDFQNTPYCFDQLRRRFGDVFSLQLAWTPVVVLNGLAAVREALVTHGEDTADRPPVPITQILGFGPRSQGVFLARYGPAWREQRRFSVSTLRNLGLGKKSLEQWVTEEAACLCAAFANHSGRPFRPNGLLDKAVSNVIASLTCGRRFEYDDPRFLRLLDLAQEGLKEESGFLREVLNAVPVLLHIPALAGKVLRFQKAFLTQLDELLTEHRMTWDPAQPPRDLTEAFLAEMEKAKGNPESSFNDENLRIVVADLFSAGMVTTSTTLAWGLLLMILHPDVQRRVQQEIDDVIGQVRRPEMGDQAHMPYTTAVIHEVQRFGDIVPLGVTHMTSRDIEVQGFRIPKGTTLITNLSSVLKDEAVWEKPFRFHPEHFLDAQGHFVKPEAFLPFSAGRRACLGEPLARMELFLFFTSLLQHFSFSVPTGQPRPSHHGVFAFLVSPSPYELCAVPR
T3 sequence (P33261 whole entry): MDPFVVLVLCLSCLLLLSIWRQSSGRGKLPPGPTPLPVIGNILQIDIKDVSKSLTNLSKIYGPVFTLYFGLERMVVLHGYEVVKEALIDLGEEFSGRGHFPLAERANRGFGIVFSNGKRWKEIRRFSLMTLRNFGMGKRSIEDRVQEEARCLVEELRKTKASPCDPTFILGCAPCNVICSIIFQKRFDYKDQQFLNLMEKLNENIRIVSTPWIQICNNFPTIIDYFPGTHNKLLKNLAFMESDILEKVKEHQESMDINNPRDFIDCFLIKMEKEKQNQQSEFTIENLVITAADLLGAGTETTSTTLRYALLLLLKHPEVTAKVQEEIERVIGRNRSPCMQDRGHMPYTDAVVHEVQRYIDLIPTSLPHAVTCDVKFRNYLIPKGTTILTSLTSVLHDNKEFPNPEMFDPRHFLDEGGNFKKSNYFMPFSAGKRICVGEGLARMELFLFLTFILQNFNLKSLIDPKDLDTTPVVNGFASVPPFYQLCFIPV
T2 sequence (P11712 whole entry): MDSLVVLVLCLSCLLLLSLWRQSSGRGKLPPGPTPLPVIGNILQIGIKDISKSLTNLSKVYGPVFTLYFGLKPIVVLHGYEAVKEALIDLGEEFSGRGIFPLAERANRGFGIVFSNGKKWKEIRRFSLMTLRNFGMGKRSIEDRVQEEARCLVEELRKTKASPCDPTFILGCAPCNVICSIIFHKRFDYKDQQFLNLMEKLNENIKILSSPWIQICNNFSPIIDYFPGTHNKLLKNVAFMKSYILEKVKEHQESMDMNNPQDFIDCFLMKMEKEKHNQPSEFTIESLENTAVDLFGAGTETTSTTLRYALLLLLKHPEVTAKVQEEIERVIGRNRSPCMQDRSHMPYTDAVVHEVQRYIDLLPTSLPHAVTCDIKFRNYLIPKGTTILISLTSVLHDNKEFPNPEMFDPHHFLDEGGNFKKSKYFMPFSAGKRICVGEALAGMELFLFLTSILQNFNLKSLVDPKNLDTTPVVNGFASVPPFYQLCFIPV

SMILES | IC50 (CYP1A2) | IC50 (CYP2C9) | IC50 (CYP2C19) | IC50 (CYP2D6) | IC50 (CYP3A4; [1]) | IC50 (CYP3A4; [2])
C=CC(=O)N1CCN(c2nc(=O)n(-c3c(C)ccnc3C(C)C)c3nc(-c4c(O)cccc4F)c(F)cc23)[C@@H](C)C1 (atropisomer, axis not shown) [AMG-510] | > 10 µM | > 10 µM | > 10 µM | > 10 µM | 4.46 µM | > 10 µM
C=C(F)C(=O)N1CCN(c2nc(OC[C@@H]3CCCN3C)nc3c2CCN(c2cccc4cccc(Cl)c24)C3)C[C@@H]1CC#N [MRTX849] | > 10 µM | 2.29 µM | > 10 µM | > 10 µM | 5.92 µM | 7.85 µM
